What was measured:
Assay type in all cases: in vivo
[1] = tested on: corn (Zea mays); assay: Test D pre-/postemergence plant response; settings: Postemergence; for Corn plant response rating: scale 0 to 100 (0 no effect, 100 complete control); for Plant response rating, Corn: scale 0 to 100, 0 no effect, 100 complete control
Method in brief: (§1)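 Each compound, in non-phytotoxic solvent with surfactant, was sprayed onto soil right after sowing or onto young plants 2 to 18 cm tall. After 13 to 15 days under greenhouse conditions, effects were judged visually against controls on a 0 (no effect) to 100 (complete control) scale.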

[2] = tested on: soybean (Glycine max); assay: Test D pre-/postemergence plant response; settings: Postemergence
Method in brief: as §1

[3] = tested on: ragweed (common ragweed, Ambrosia elatior); assay: Test D pre-/postemergence plant response; settings: Postemergence
Method in brief: as §1

[4] = tested on: morningglory (Ipomoea coccinea); assay: Test D pre-/postemergence plant response; settings: Postemergence
Method in brief: as §1

[5] = tested on: waterhemp (common waterhemp, Amaranthus rudis); assay: Test D pre-/postemergence plant response; settings: Postemergence
Method in brief: as §1

[6] = tested on: lambsquarters (Chenopodium album); assay: Test D pre-/postemergence plant response; settings: Postemergence
Method in brief: as §1

[7] = tested on: yellow nutsedge (Cyperus esculentus); assay: Test D pre-/postemergence plant response; settings: Postemergence
Method in brief: as §1

[8] = tested on: large (Lg) crabgrass (Digitaria sanguinalis); assay: Test D pre-/postemergence plant response; settings: Postemergence; for Crabgrass, Large plant response rating: scale 0 to 100 (0 no effect, 100 complete control); for Plant response rating, Crabgrass, Large: scale 0 to 100, 0 no effect, 100 complete control
Method in brief: as §1

[9] = tested on: winter wheat (Triticum aestivum); assay: Test D pre-/postemergence plant response; settings: Postemergence
Method in brief: as §1

[10] = tested on: Italian ryegrass (Lolium multiflorum); assay: Test D pre-/postemergence plant response; settings: Postemergence
Method in brief: as §1

[11] = tested on: galium (catchweed bedstraw, Galium aparine); assay: Test D pre-/postemergence plant response; settings: Postemergence; for Galium plant response rating: 31 g ai/ha, scale 0 to 100 (0 no effect, 100 complete control); for Plant response rating, Galium: scale 0 to 100, 0 no effect, 100 complete control
Method in brief: as §1

[12] = tested on: giant foxtail (Setaria faberii); assay: Test B pre-/postemergence plant response
Method in brief: (§2)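 Visual injury scores on a 0–100 scale (100 = complete control) relative to untreated plants, taken about 10 days post-treatment in greenhouse. Treatments were a directed preemergence soil spray and a postemergence spray at one- to two-leaf stage, using surfactant-containing solvent formulation.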

[13] = tested on: corn (Zea mays); assay: Test B pre-/postemergence plant response
Method in brief: as §2

[14] = tested on: pigweed (Amaranthus retroflexus); assay: Test B pre-/postemergence plant response
Method in brief: as §2

[15] = tested on: barnyardgrass (Echinochloa crus-galli); assay: Test B pre-/postemergence plant response
Method in brief: as §2

[16] = tested on: wheat (Triticum aestivum); assay: Test B pre-/postemergence plant response
Method in brief: as §2

[17] = 31 g ai/ha, scale 0 to 100 (0 no effect, 100 complete control)
[18] = 62 g ai/ha, scale 0 to 100, 0 no effect, 100 complete control
[19] = 125 g ai/ha, scale 0 to 100, 0 no effect, 100 complete control
[20] = 125 g ai/ha, postemergence, 0 to 100 scale, 0 no effect, 100 complete control
[21] = Postemergence, 500 g ai/ha, 0 to 100 scale (0 no effect, 100 complete control)
[22] = Preemergence, 125 g ai/ha, 0 to 100 scale (0 no effect, 100 complete control)
[23] = Preemergence, 500 g ai/ha, 0 to 100 scale where 0 is no effect and 100 is complete control
[24] = 31 g ai/ha, Preemergence, 0 to 100 scale where 0 is no effect and 100 is complete control
[25] = Postemergence, 31 g ai/ha, 0 to 100 scale (0 no effect, 100 complete control)

FC(F)(F)c1cc(-c2c(Cl)cccc2Oc2ncc(Cl)cn2)no1 [Compound 169]
100: Plant response rating, Pigweed [14, 20] | Plant response rating, Pigweed [14, 21] | Pigweed plant response rating [14, 22] | Plant response rating, Pigweed [14, 23]
35: Plant response rating, Ragweed [3, 19] | Plant response rating, Lambsquarters [6, 18]
30: Plant response rating, Foxtail, Giant [12, 20] | Plant response rating, Barnyardgrass [15, 21] | Plant response rating, Barnyardgrass [15, 23]
10: Plant response rating, Corn ([1]; 62 g ai/ha) | Plant response rating, Corn ([1]; 125 g ai/ha) | Plant response rating, Crabgrass, Large ([8]; 62 g ai/ha) | Plant response rating, Crabgrass, Large ([8]; 125 g ai/ha) | Plant response rating, Wheat [9, 18] | Plant response rating, Wheat [9, 19] | Plant response rating, Corn [13, 20] | Plant response rating, Barnyardgrass [15, 20]
25: Plant response rating, Soybean [2, 19] | Plant response rating, Ragweed [3, 18]
20: Plant response rating, Corn [13, 21] | Barnyardgrass plant response rating [15, 22]
75: Plant response rating, Galium ([11]; 125 g ai/ha)
55: Plant response rating, Morningglory [4, 18]
60: Plant response rating, Foxtail, Giant [12, 21]
80: Plant response rating, Lambsquarters [6, 19]
15: Plant response rating, Soybean [2, 18] | Morningglory plant response rating [4, 17] | Plant response rating, Ryegrass, Italian [10, 19]
5: Corn plant response rating ([1]; 31 g ai/ha) | Soybean plant response rating [2, 17] | Ragweed plant response rating [3, 17] | Plant response rating, Nutsedge, Yellow [7, 19] | Crabgrass, Large plant response rating ([8]; 16 g ai/ha) | Crabgrass, Large plant response rating ([8]; 31 g ai/ha) | Wheat plant response rating [9, 17] | Plant response rating, Ryegrass, Italian [10, 18]
40: Lambsquarters plant response rating [6, 17]
65: Plant response rating, Morningglory [4, 19]
50: Foxtail, Giant plant response rating [12, 22]
0: Corn plant response rating ([1]; 16 g ai/ha) | Nutsedge, Yellow plant response rating [7, 17] | Plant response rating, Nutsedge, Yellow [7, 18] | Ryegrass, Italian plant response rating [10, 17] | Plant response rating, Wheat [16, 20] | Plant response rating, Wheat [16, 21]
70: Galium plant response rating [11] | Plant response rating, Galium ([11]; 62 g ai/ha)
90: Waterhemp plant response rating [5, 17] | Plant response rating, Waterhemp [5, 18] | Plant response rating, Waterhemp [5, 19] | Plant response rating, Foxtail, Giant [12, 23]

FC(F)(F)c1cc(-c2c(Br)cccc2Oc2ncc(Cl)cn2)no1 [Compound 170]
90: Plant response rating, Foxtail, Giant [12, 23]
100: Plant response rating, Waterhemp [5, 18] | Plant response rating, Pigweed [14, 20] | Plant response rating, Pigweed [14, 21] | Pigweed plant response rating [14, 22] | Plant response rating, Pigweed [14, 23]
15: Plant response rating, Wheat [9, 19]
60: Foxtail, Giant plant response rating [12, 22]
70: Plant response rating, Morningglory [4, 18]
85: Plant response rating, Waterhemp [5, 19]
5: Corn plant response rating ([1]; 16 g ai/ha) | Corn plant response rating ([1]; 31 g ai/ha) | Plant response rating, Corn ([1]; 62 g ai/ha) | Plant response rating, Corn ([1]; 125 g ai/ha) | Ragweed plant response rating [3, 17] | Nutsedge, Yellow plant response rating [7, 17] | Plant response rating, Nutsedge, Yellow [7, 18] | Crabgrass, Large plant response rating ([8]; 16 g ai/ha) | Crabgrass, Large plant response rating ([8]; 31 g ai/ha) | Plant response rating, Crabgrass, Large ([8]; 62 g ai/ha) | Plant response rating, Ryegrass, Italian [10, 18] | Plant response rating, Ryegrass, Italian [10, 19]
98: Plant response rating, Morningglory [4, 19]
30: Morningglory plant response rating [4, 17] | Plant response rating, Foxtail, Giant [12, 20] | Plant response rating, Wheat [16, 21]
50: Galium plant response rating [11] | Plant response rating, Foxtail, Giant [12, 21]
40: Lambsquarters plant response rating [6, 17] | Plant response rating, Lambsquarters [6, 18]
10: Soybean plant response rating [2, 17] | Plant response rating, Soybean [2, 18] | Plant response rating, Ragweed [3, 18] | Plant response rating, Ragweed [3, 19] | Plant response rating, Nutsedge, Yellow [7, 19] | Plant response rating, Crabgrass, Large ([8]; 125 g ai/ha) | Plant response rating, Wheat [9, 18]
65: Plant response rating, Galium ([11]; 62 g ai/ha)
0: Ryegrass, Italian plant response rating [10, 17] | Plant response rating, Barnyardgrass [15, 20] | Barnyardgrass plant response rating [15, 22] | Plant response rating, Wheat [16, 20]
35: Plant response rating, Soybean [2, 19]
20: Wheat plant response rating [9, 17] | Plant response rating, Corn [13, 20] | Plant response rating, Corn [13, 21] | Plant response rating, Barnyardgrass [15, 21] | Plant response rating, Barnyardgrass [15, 23]
80: Waterhemp plant response rating [5, 17] | Plant response rating, Lambsquarters [6, 19] | Plant response rating, Galium ([11]; 125 g ai/ha)

CC(F)(F)c1cc(-c2ccccc2Oc2ncc(Cl)cn2)on1 [Compound 178]
70: Plant response rating (scale 0 to 100), Morningglory ([4]; 16 g ai/ha) | Plant response rating (scale 0 to 100), Waterhemp ([5]; 16 g ai/ha) | Lambsquarters plant response rating [6, 17] | Barnyardgrass plant response rating [15, 22]
35: Soybean plant response rating [2, 17] | Soybean plant response rating [2, 18] | Plant response rating, Ragweed [3, 19]
0: Plant response rating (scale 0 to 100), Corn ([1]; 16 g ai/ha) | Plant response rating (scale 0 to 100), Wheat ([9]; 16 g ai/ha) | Plant response rating (scale 0 to 100), Ryegrass, Italian ([10]; 16 g ai/ha) | Ryegrass, Italian plant response rating [10, 17] | Plant response rating, Corn [13, 25] | Plant response rating, Barnyardgrass [15, 25] | Plant response rating, Wheat [16, 25]
98: Plant response rating, Galium ([11]; 62 g ai/ha)
90: Plant response rating, Morningglory [4, 19] | Plant response rating, Waterhemp [5, 19] | Plant response rating, Lambsquarters [6, 19] | Foxtail, Giant plant response rating [12, 22] | Plant response rating, Pigweed [14, 24]
100: Morningglory plant response rating [4, 17] | Morningglory plant response rating [4, 18] | Plant response rating, Pigweed [14, 20] | Plant response rating, Pigweed [14, 25] | Pigweed plant response rating [14, 22]
45: Plant response rating, Soybean [2, 19]
15: Plant response rating (scale 0 to 100), Soybean ([2]; 16 g ai/ha) | Plant response rating, Crabgrass, Large ([8]; 125 g ai/ha)
20: Ragweed plant response rating [3, 18] | Plant response rating, Crabgrass, Large ([8]; 62 g ai/ha) | Plant response rating, Corn [13, 20] | Plant response rating, Barnyardgrass [15, 24]
10: Plant response rating, Corn ([1]; 125 g ai/ha) | Nutsedge, Yellow plant response rating [7, 18] | Crabgrass, Large plant response rating ([8]; 31 g ai/ha) | Plant response rating, Wheat [9, 19] | Plant response rating, Foxtail, Giant [12, 25] | Plant response rating, Wheat [16, 20]
40: Plant response rating, Barnyardgrass [15, 20]
5: Corn plant response rating ([1]; 31 g ai/ha) | Plant response rating, Corn ([1]; 62 g ai/ha) | Plant response rating (scale 0 to 100), Ragweed ([3]; 16 g ai/ha) | Ragweed plant response rating [3, 17] | Plant response rating (scale 0 to 100), Nutsedge, Yellow ([7]; 16 g ai/ha) | Nutsedge, Yellow plant response rating [7, 17] | Plant response rating, Nutsedge, Yellow [7, 19] | Plant response rating (scale 0 to 100), Crabgrass, Large ([8]; 16 g ai/ha) | Wheat plant response rating [9, 17] | Wheat plant response rating [9, 18] | Ryegrass, Italian plant response rating [10, 18] | Plant response rating, Ryegrass, Italian [10, 19]
25: Plant response rating (scale 0 to 100), Lambsquarters ([6]; 16 g ai/ha)
80: Waterhemp plant response rating [5, 17] | Galium plant response rating [11]
60: Plant response rating, Foxtail, Giant [12, 24] | Plant response rating, Foxtail, Giant [12, 20]
85: Waterhemp plant response rating [5, 18] | Plant response rating, Galium ([11]; 125 g ai/ha)
75: Lambsquarters plant response rating [6, 18] | Plant response rating (scale 0 to 100), Galium ([11]; 16 g ai/ha)
